The source of these data is PubChem BioAssay (NCI).

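Test compounds were applied to cells in 96-well plates for 48 hours at 5 doses. TGI: total growth inhibition.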

Some test systems named below: BT-549 breast; NCI-H522 lung; SF-295 CNS.
Common to all, as to assay: inhibition of tumour cell growth, NCI panel, 48 h

Consider `CCCC(=O)Nc1cc(/C=C/C(=O)N2CC(CCl)c3c2cc(O)c2[nH]cc(C)c32)n(C)c1` (stereo not drawn), for which the TGI with BT-549 breast is 0.504 nM; in the test on NCI-H522 lung, below 0.025 nM; in the test with SF-295 CNS, 0.0298 nM.
